According to patent US11466273B2, “Monocarboxylate transporter 4 (MCT4) antisense oligonucleotide (ASO) inhibitors for use as therapeutics in the treatment of cancer” (THE UNIVERSITY OF BRITISH COLUMBIA, priority 2015, dated 2022):
Strand notation (5' to 3'): a small letter for the sugar, then the base; units joined by * are phosphorothioate-linked, units joined directly phosphodiester-linked; [ ] holds rarer units or linkages, { } end groups; capitals alone tell only the bases. d = 2'-deoxy (DNA)

Tested on: MCT4
Assay: Percent inhibition of MCT4 by MCT4 ASOs (knock-down after transfection, qPCR/Western blot)
Format: cell-based, human
Procedure: First-generation phosphorothioate-modified ASOs against human MCT4 were rationally designed by selecting sequences containing favourable motifs while excluding unfavourable ones (Matveeva et al., 2000). Specificity of MCT4-targeting sequences, compared to human and mouse genes (at least 3 of 20 bases mismatched), was evaluated using BLAST. Ten sequences SEQ ID No: 1, 4, 5, 9, 11, 30, 36, 37, 40 and 41 (see TABLE A) distributed throughout the length of the transcript with perfect complementarity to all human MCT4 transcript variants (NM_001042422.2, NM_001042423.2, NM_001206950.1, NM_001206951.1, NM_001206952.1, and NM_004207.3) were selected and synthesized by Eurofins MWG Operon. The knock-down efficiencies of these ten ASOs were tested by determining target mRNA and protein expression 48 hours after transfection of cells using qPCR and Western blotting. Two candidate ASOs (#1 and #14—SEQ ID NOs: 1 and 5, respectively) were selected for further studies. Sequences: ASO #1 (SEQ ID NO: 1), 5′-[…]-3′; ASO #14 (SEQ ID NO: 5), 5′-[…]-3′; a published non-targeting control ASO, 5′-[…]-3′ (Mullick et al., 2011; Samuel et al., 2006).
Cells were transfected in 6-well plates with ASOs at 100 nM for 48 hours (unless otherwise indicated) using Oligofectamine™ (Invitrogen™, Carlsbad, Calif.) or with MCT4-targeting siRNAs and controls (Dharmacon™, Chicago, Ill.) at 50 nM for 48 hours using Lipofectamine™ 2000 (Invitrogen™), following the manufacturer's instructions.
Total RNA was isolated using the RNeasy Mini Kit™ (Qiagen Inc.™, Hilden, Germany) and cDNA synthesized using the QuantiTect Reverse Transcription Kit™ (Qiagen™). Primers were designed using Primer-BLAST™. qRT-PCR reactions using KAPA SYBR Fast Universal™ (Kapa Biosystems™, Woburn, Mass.) were performed in triplicate in a ViiA 7 Real-Time PCR™ system (Applied Biosystems™, Foster City, Calif.). Target genes were normalized to a geometric average of 3 internal reference genes (Vandesompele et al., 2002).
Cells were harvested and lysed in RIPA buffer (50 mM Tris-Cl pH 7.4, 150 mM NaCl, 1% Igepal, 0.5% Na-deoxycholate, 0.1% SDS) supplemented with a complete protease inhibitor cocktail (Roche, Nutley, N.J.). The protein concentration of the lysate was determined by Pierce BCA Protein Assay™ (Thermo Scientific™, Waltham, Mass.). The lysate was run on 8% SDS polyacrylamide gel (20 ug of protein per lane) and proteins were transferred onto PVDF membrane (Millipore™, Billerica, Mass.). The blot was blocked with the Odyssey™ blocking buffer (Li-cor Biosciences™) and probed with anti-MCT4 antibody. Vinculin was used as a loading control. Following overnight incubation at 4° C., the primary antibody was probed with the corresponding secondary antibody and detected using the Odyssey Infrared Imaging System™ (Li-cor Biosciences™) and Image Studio Version 3.1™ (Li-cor Biosciences™). Densitometry analysis was done using ImageJ (U.S. National Institutes of Health, Bethesda, Md.).

[1] = Table A, ASOs transfected at 100 nM for 48 hours unless otherwise indicated

Question: How did the “% MCT4 Inhibition” value [1] turn out when “1 (TCCCATGGCCAGGAGGGTTG; antisense; DNA, all phosphorothioate, methylation of C not given here; listed as Homo sapiens) [compound 1]” was run?
Answer: The value was 65.52%.

Question: What about the “% MCT4 Inhibition” value (Table B, SEQ ID NO 1 and 16 mer truncations) of the same substance?
Answer: Its value is 65.52%.

Question: For “2 (GTCCCGGAAGACGCTCAGGT; antisense; DNA, all phosphorothioate, methylation of C not given here; listed as Homo sapiens) [compound 2]”, which “% MCT4 Inhibition” value [1] is on record?
Answer: Its value is 86.33%.

Question: For “3 (AAGGACGCAGCCACCATGCC; antisense; DNA, all phosphorothioate, methylation of C not given here; listed as Homo sapiens) [compound 3]”, which “% MCT4 Inhibition” value [1] is on record?
Answer: The value was 71.19%.

Question: Which “% MCT4 Inhibition” value [1] does the source give for “4 (TTGGCGTAGCTCACCACGAA; antisense; DNA, all phosphorothioate, methylation of C not given here; listed as Homo sapiens) [compound 4]” here?
Answer: The value was 77.13%.

Question: With “5 (AGATGCAGAAGACCACGAGG; antisense; DNA, all phosphorothioate, methylation of C not given here; listed as Homo sapiens) [compound 5]” as the substance, how does the “% MCT4 Inhibition” value [1] read?
Answer: Its value is 78.16%.

Question: For “6 (CCACTCTGGAATGACACGGT; antisense; DNA, all phosphorothioate, methylation of C not given here; listed as Homo sapiens) [compound 6]”, which “% MCT4 Inhibition” value [1] is on record?
Answer: Its value is 78.67%.

Question: Which “% MCT4 Inhibition” value [1] does the source give for “7 (GTAGGAGAAGCCAGTGATGAC; antisense; DNA, all phosphorothioate, methylation of C not given here; listed as Homo sapiens) [compound 7]” here?
Answer: The value was 66.31%.

Question: “8 (AGCATGGCCAGCAGGATGGA; antisense; DNA, all phosphorothioate, methylation of C not given here; listed as Homo sapiens) [compound 8]” was tested. Which “% MCT4 Inhibition” value [1] did it give?
Answer: Its value is 80.77%.

Question: “9 (GGCTGGAAGTTGAGTGCCAA; antisense; DNA, all phosphorothioate, methylation of C not given here; listed as Homo sapiens) [compound 9]” was tested. Which “% MCT4 Inhibition” value [1] did it give?
Answer: The value was 76.03%.

Question: “10 (CATGCCGTAGGAGATGCCAA; antisense; DNA, all phosphorothioate, methylation of C not given here; listed as Homo sapiens) [compound 10]” was tested. Which “% MCT4 Inhibition” value [1] did it give?
Answer: The value was 76.51%.

Question: Which “% MCT4 Inhibition” value [1] does the source give for “11 (CTCAGGCTGTGGCTCTTTGG; antisense; DNA, all phosphorothioate, methylation of C not given here; listed as Homo sapiens) [compound 11]” here?
Answer: The value was 63.01%.

Question: How did the “% MCT4 Inhibition” value [1] turn out when “12 (TAGCGGTTCAGCATGATGA; antisense; DNA, all phosphorothioate, methylation of C not given here; listed as Homo sapiens) [compound 12]” was run?
Answer: The value was 70.36%.

Question: With “13 (AGCACGGCCCAGCCCCAGCC; antisense; DNA, all phosphorothioate, methylation of C not given here; listed as Homo sapiens) [compound 13]” as the substance, how does the “% MCT4 Inhibition” value [1] read?
Answer: The value was 66.85%.

Question: Which “% MCT4 Inhibition” value [1] does the source give for “14 (GAGCTCCTTGAAGAAGACACT; antisense; DNA, all phosphorothioate, methylation of C not given here; listed as Homo sapiens) [compound 14]” here?
Answer: The value was 72.00%.

Question: With “15 (dC*dA*dG*dG*dA*dT*dG*dG*dA*dG*dG*dA*dG*dA*dT*dC*dC*dA*dG*dG; antisense; listed as Homo sapiens) [compound 15]” as the substance, how does the “% MCT4 Inhibition” value [1] read?
Answer: Its value is 75.58%.

Question: Which “% MCT4 Inhibition” value [1] does the source give for “16 (dA*dG*dA*dC*dC*dC*dC*dC*dC*dA*dC*dA*dA*dG*dC*dA*dT*dG*dA*dC; antisense; listed as Homo sapiens) [compound 16]” here?
Answer: The value was 55.47%.

Question: With “17 (dG*dA*dA*dG*dT*dT*dG*dA*dG*dT*dG*dC*dC*dA*dA*dA*dC*dC*dC*dA*dA; antisense; listed as Homo sapiens) [compound 17]” as the substance, how does the “% MCT4 Inhibition” value [1] read?
Answer: The value was 70.93%.

Question: Which “% MCT4 Inhibition” value [1] does the source give for “18 (dC*dC*dC*dG*dT*dT*dG*dG*dC*dC*dA*dT*dG*dG*dG*dG*dC*dG*dC*dC; antisense; listed as Homo sapiens) [compound 18]” here?
Answer: The value was 71.14%.

Question: “19 (dG*dC*dC*dA*dG*dC*dC*dC*dG*dT*dT*dG*dG*dC*dC*dA*dT*dG*dG*dG; antisense; listed as Homo sapiens) [compound 19]” was tested. Which “% MCT4 Inhibition” value [1] did it give?
Answer: Its value is 80.26%.

Question: How did the “% MCT4 Inhibition” value [1] turn out when “20 (dA*dG*dG*dA*dA*dG*dA*dC*dA*dG*dG*dG*dC*dT*dA*dC*dC*dT*dG*dC; antisense; listed as Homo sapiens) [compound 20]” was run?
Answer: The value was 66.26%.

Question: “21 (dG*dC*dA*dC*dA*dC*dA*dG*dG*dA*dA*dG*dA*dC*dA*dG*dG*dG*dC*dT; antisense; listed as Homo sapiens) [compound 21]” was tested. Which “% MCT4 Inhibition” value [1] did it give?
Answer: The value was 60.36%.

Question: With “22 (dC*dA*dG*dG*dG*dC*dA*dC*dA*dC*dA*dG*dG*dA*dA*dG*dA*dC*dA*dG; antisense; listed as Homo sapiens) [compound 22]” as the substance, how does the “% MCT4 Inhibition” value [1] read?
Answer: The value was 79.96%.

Question: Which “% MCT4 Inhibition” value [1] does the source give for “23 (dC*dA*dG*dC*dA*dG*dT*dT*dG*dA*dG*dC*dA*dG*dC*dA*dG*dG*dC*dC; antisense; listed as Homo sapiens) [compound 23]” here?
Answer: The value was 65.41%.

Question: With “24 (dG*dA*dC*dC*dT*dG*dT*dC*dC*dC*dG*dT*dA*dG*dA*dG*dC*dA*dT*dG; antisense; listed as Homo sapiens) [compound 24]” as the substance, how does the “% MCT4 Inhibition” value [1] read?
Answer: The value was 47.24%.

Question: For “25 (dT*dT*dC*dC*dC*dA*dA*dG*dC*dC*dC*dC*dG*dC*dC*dA*dC*dG*dA*dA; antisense; listed as Homo sapiens) [compound 25]”, which “% MCT4 Inhibition” value [1] is on record?
Answer: The value was 22.88%.

Question: For “26 (dA*dA*dT*dG*dC*dT*dC*dC*dA*dC*dC*dT*dC*dC*dC*dG*dC*dA*dA*dG; antisense; listed as Homo sapiens) [compound 26]”, which “% MCT4 Inhibition” value [1] is on record?
Answer: Its value is 9.55%.

Question: For “27 (dA*dC*dC*dT*dC*dC*dC*dC*dG*dT*dT*dT*dT*dT*dC*dT*dC*dA*dG*dG; antisense; listed as Homo sapiens) [compound 27]”, which “% MCT4 Inhibition” value [1] is on record?
Answer: Its value is 3.17%.

Question: “28 (dT*dG*dT*dG*dA*dA*dC*dC*dA*dC*dC*dT*dC*dC*dC*dC*dG*dT*dT*dT; antisense; listed as Homo sapiens) [compound 28]” was tested. Which “% MCT4 Inhibition” value [1] did it give?
Answer: The value was 29.91%.

Question: For “29 (dT*dC*dT*dG*dT*dA*dC*dC*dT*dC*dC*dT*dC*dC*dC*dT*dG*dT*dG*dC; antisense; listed as Homo sapiens) [compound 29]”, which “% MCT4 Inhibition” value [1] is on record?
Answer: Its value is 16.31%.

Question: Which “% MCT4 Inhibition” value [1] does the source give for “30 (dG*dA*dA*dT*dG*dA*dC*dA*dC*dG*dG*dT*dT*dC*dC*dC*dA*dC*dC*dC; antisense; listed as Homo sapiens) [compound 30]” here?
Answer: Its value is 25.51%.

Question: How did the “% MCT4 Inhibition” value [1] turn out when “31 (dG*dC*dC*dC*dA*dC*dC*dC*dA*dC*dC*dC*dT*dC*dC*dC*dA*dT*dT*dA; antisense; listed as Homo sapiens) [compound 31]” was run?
Answer: Its value is -43.4%.

Question: For “32 (dA*dA*dG*dA*dG*dA*dC*dC*dC*dC*dC*dC*dA*dC*dA*dA*dG*dC*dA*dT; antisense; listed as Homo sapiens) [compound 32]”, which “% MCT4 Inhibition” value [1] is on record?
Answer: The value was 18.67%.

Question: “33 (dC*dC*dC*dA*dC*dC*dA*dT*dG*dC*dC*dG*dT*dA*dG*dG*dA*dG*dA*dT; antisense; listed as Homo sapiens) [compound 33]” was tested. Which “% MCT4 Inhibition” value [1] did it give?
Answer: Its value is 49.00%.

Question: “34 (dA*dG*dT*dC*dC*dA*dC*dC*dC*dC*dC*dG*dA*dG*dT*dC*dT*dG*dC*dA; antisense; listed as Homo sapiens) [compound 34]” was tested. Which “% MCT4 Inhibition” value [1] did it give?
Answer: Its value is 20.5%.

Question: “35 (dC*dT*dT*dC*dA*dC*dC*dG*dC*dA*dG*dA*dT*dC*dC*dA*dC*dT*dC*dT; antisense; listed as Homo sapiens) [compound 35]” was tested. Which “% MCT4 Inhibition” value [1] did it give?
Answer: The value was -10.07%.

Question: For “36 (dA*dA*dC*dA*dC*dT*dC*dC*dA*dC*dC*dC*dA*dC*dA*dC*dG*dC*dA*dG; antisense; listed as Homo sapiens) [compound 36]”, which “% MCT4 Inhibition” value [1] is on record?
Answer: Its value is 9.33%.

Question: How did the “% MCT4 Inhibition” value [1] turn out when “37 (dC*dC*dA*dG*dC*dC*dA*dC*dT*dC*dA*dG*dA*dC*dA*dC*dT*dT*dG*dT; antisense; listed as Homo sapiens) [compound 37]” was run?
Answer: The value was 33.14%.
